Test results as given in patent US20150352209A1, “NANOFIBER HAVING SELF-HEATING […] BIOLOGICALLY ACTIVE SUBSTANCE RELEASE PROPERTIES, PRODUCTION METHOD FOR SAME, AND NONWOVEN FABRIC HAVING SELF-HEATING […] BIOLOGICALLY ACTIVE SUBSTANCE RELEASE CAPABILITIES” (NATIONAL INSTITUTE FOR MATERIALS SCIENCE, priority 2013, published 2015).

Test system: COLO679 cell, which is a human melanoma cell line
Test: Cancer cell killing test (cell proliferation index)
Assay type: cell-based
Conditions: COLO679 cells; anticancer drug added instead of application of alternating magnetic field

`COc1cccc2c1C(=O)c1c(O)c3c(c(O)c1C2=O)C[C@@](O)(C(=O)CO)C[C@@H]3O[C@H]1C[C@H](N)[C@H](O)[C@H](C)O1` [free anticancer drug, doxorubicin] was tested, and the “change of cell proliferation index (CPI)” value was “the decrease amount of the CPI was smaller than in the case in which the sample in Example 1 was used”.
